Results from US5589568A (priority 1994, dated 1996).
Where two headings read alike, the source gives them in different places. Where no end group is shown, it is not given here.

Key:
[1] = target: T1, Go (Bos taurus, UniProt P08239); assay: steady state GTPase activity of Go in phospholipid vesicles; type: biochemical, bovine; conditions: for Goo ef. (apparent efficacy, maximum turnover number of GTPase activity): Table IV
T1 construct: proteins were extracted from bovine cerebral cortical membranes; from tissue; host or cells: bovine brain (cerebral cortical membranes)

[2] = system: Gi; assay: steady state GTPase activity of Gi in phospholipid vesicles; type: biochemical, rabbit;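 also: Steady-state GTP hydrolysis by Gi measured in a detergent-free buffer containing 1.1 mM MgSO4 plus the specified guanine nucleotide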
Experimental: The concentration of free Mg^2+ in assay medium that contains 5 mM EDTA and no added Mg^2+ is estimated to be 0.1-0.2 nM according to Brandt et al., 1988 and 1983.

[3] = target: Gs (Homo sapiens, UniProt P63092); assay: steady state GTPase activity of Gs; type: biochemical; conditions: for EC50: read-out: Gs af. (apparent affinity, estimated by EC50 of GTPase activity)
Experimental: Methods for the assay of steady state GTP hydrolysis and GTPγS binding have been described previously by Higashijima, 1987, and Ferguson, 1986, and incorporated herein by reference. Unless noted otherwise, assays of steady state GTP hydrolysis and of the binding and dissociation of guanine nucleotides were carried out in the buffer described previously, but without detergent and with 1.1 mM MgSO4 and the nucleotide specified in the text. When necessary, the concentration of free Mg^2+ was adjusted using EDTA buffers as described previously by Higashijima, 1987, and incorporated herein by reference.
The data set forth in the following tables represent data generated by the inventors employing the steady state GTP hydrolysis, expressed as molar turnover numbers, are described herein under the "Assay" section of the Experimental Procedures in Example 1. The data has been classified according to the criteria outlined below and the effects of each peptide and modified variant on Go, Gi, and Gs have been tabulated. Table III below sets forth data generated for various mastoparan analogues designed by the inventors, in comparison with the various naturally-occurring mastoparans (e.g., MP, MP-A and MP-T). Table IV sets forth similar data generated for various receptor-based peptides designed by the inventors based on a consideration of various G-protein linked receptors.
Apparent affinity (af.) and apparent efficacy (ef.) were estimated by EC50 and maximum turnover number of GTPase activity.

[4] = system: Gi; assay: release of [α-32P]GDP from Gi (GDP exchange); type: biochemical, rabbit
Experimental: FIG. 1. Stimulation of GDP/GTP exchange by analogs of MP. The release of [α-^32 P]GDP from Gi was measured at 30° C. in the presence of the concentrations of several different MP analogs whose structures are listed in Table I: O, Mas7; Δ, Mas8; .tangle-solidup.Mas9; .quadrature., Mas19; .oval-solid., MP; .box-solid., MP-X; .gradient., MAS14; .tangle-soliddn., Mas6. First order dissociation rate constants (kdiss) were determined from duplicate four-point time courses as described under "Experimental Procedures."
Purification of αo and βγ was completed by chromatography on DEAE-Sephacel that was eluted with a gradient of 0-250 mM NaCl in the presence of 0.6% Lubrol and AMF. AMF was removed by chromatography on hydroxyapatite and Sephadex G-25 as described by Sternweis, et al., 1981, incorporated herein by reference. Gi was purified as the αβγ trimer from rabbit liver as reported by Bokoch, et al., 1984, incorporated herein by reference. The Gi used in this study could be recognized on a Western blot by anti-Gi -1 and anti-Gi -3 antibodies but not by anti-Gi -2 antibody, as documented by Mumby, et al., 1983, incorporated herein by reference. Purified recombinant αi,1 was synthesized in E. coli prepared to the specifications of Linder, incorporated herein by reference. During purification, G protein α subunits were assayed by [^35 S] GTPγ S binding according to the method of Higashijima, 1987, incorporated herein by reference). By subunits were assayed according to their ability to deactivate Gs, as detailed by Northup, 1983, incorporated herein by reference.
G proteins were reconstituted into phospholipid vesicles composed of dioleoyl-PC/bovine brain PS/1-palmitoyl,2-oleoyl-PE (3:4:3) as reported previously by Higashijima et al., 1988, incorporated herein by reference.
To measure the MP-catalyzed dissociation of [α-^32 P]GDP or [^35 S]-GTPγS, labeled nucleotide was first bound to G protein (approximately […] in 50 μl) by incubation of the Lubrol-solubilized G protein with a molar excess of nucleotide in assay buffer that contained 10 mM MgSO4 and 0.1% Lubrol. Incubation was for 20 min at 20° C. (for Go) or for 30 min at 30° C. (for Gi), In the case of [α-^32 P]GDP, EDTA was then added to 12 mM. […] Bound nucleotide was determined by binding to nitrocellulose filters as described (Ferguson, 1986), and incorporated herein by reference. […] Data were analyzed using a nonlinear least squares fitting program.

[5] = circular dichroism, fractional helical content; type: physicochemical; conditions: 20 μM peptide, pH 7.5, 25° C.
Experimental: CD spectra of peptides were measured using an Aviv model 60DS spectrometer at 25° C. in 1-mm pathlength cells. Spectra were scanned at 1 nm intervals for 3 s, and three scans were averaged. Peptides were dissolved at 20 μM in 5 mM Tris-Cl, pH 7.5, in the presence or absence of sonicated 1 mM 1-palmitoyl,2-oleoylphosphatidylcholine. Fractional helical content for each peptide was calculated according to the assumption that, for 100% helix and 14 peptide bonds, θ222 =36,000 (1-2.6/14).
Fractional helical contents of some of the peptides

[6] = system: muscarinic cholinergic receptor; type: binding, porcine
[7] = target: T1, Go; assay: rate of hydrolysis of protein-bound [γ-32P]GTP; type: biochemical, bovine
Experimental: The rate of hydrolysis of protein-bound [γ^32 P]GTP was measured essentially as described previously (Higashijima, 1987) at 20° C. in assay medium that contained 2 ppm Lubrol 12A9. Go (10 nM) was incubated in assay medium for 16 min with 100 nM [γ-^32 P]GTP to allow nucleotide to bind. Hydrolysis was initiated by the addition of 1.3 mM MgSO4. Excess unlabeled GTP was also added such that only a single turnover was measured. The production of [^32 P]Pi was measured as described by Higashijima, 1987.

[8] = critical micelle concentration; type: physicochemical
Description: MP was synthesized and purified as described by Saito and his colleagues (Chem. Pharm. Bull., 32:2187-2193, 1984, incorporated herein by reference). The MP analogs listed in Table I were synthesized by standard solid phase methods and purified by C-4 HPLC using an acetonitrile gradient in 0.1% trifluoroacetic acid. […] The identity of the peptides was monitored by 400-MHz or 250-Mhz ^1 H NMR spectroscopy for MP and MP-X and by mass spectroscopy for the other analogs. […] BAC was purchased from Sigma, and other alkylammonium compounds were from Aldrich. The critical micelle concentration of BAC was measured in the buffer used for GTPase assays (see below) using 1,6-diphenyl-1,3,5-hexatriene according to the method of Schrock and Gennis, (J. Biol. Chem, 252:5990-5995, 1977, incorporated herein by reference). The critical micelle concentration was approximately 20 μM.

[9] = lytic capacity / toxicity of mastoparan-based peptides
[10] = Table IV, read-out: G1 af. (apparent affinity, estimated by EC50 of GTPase activity)
[11] = Table VI, receptor-based peptides

T1 sequence (P08239 2-354 limits assumed): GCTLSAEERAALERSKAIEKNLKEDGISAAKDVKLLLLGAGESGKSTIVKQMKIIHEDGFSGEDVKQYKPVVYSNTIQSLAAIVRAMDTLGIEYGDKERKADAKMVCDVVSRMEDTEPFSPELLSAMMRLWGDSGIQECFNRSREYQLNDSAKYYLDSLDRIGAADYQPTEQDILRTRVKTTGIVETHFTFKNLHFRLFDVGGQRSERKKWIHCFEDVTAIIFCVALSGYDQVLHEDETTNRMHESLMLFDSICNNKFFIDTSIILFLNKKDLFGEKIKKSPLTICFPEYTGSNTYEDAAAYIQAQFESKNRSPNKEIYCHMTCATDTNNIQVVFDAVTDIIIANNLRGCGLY
T1 sequence (P62871 2-340 partner limits assumed): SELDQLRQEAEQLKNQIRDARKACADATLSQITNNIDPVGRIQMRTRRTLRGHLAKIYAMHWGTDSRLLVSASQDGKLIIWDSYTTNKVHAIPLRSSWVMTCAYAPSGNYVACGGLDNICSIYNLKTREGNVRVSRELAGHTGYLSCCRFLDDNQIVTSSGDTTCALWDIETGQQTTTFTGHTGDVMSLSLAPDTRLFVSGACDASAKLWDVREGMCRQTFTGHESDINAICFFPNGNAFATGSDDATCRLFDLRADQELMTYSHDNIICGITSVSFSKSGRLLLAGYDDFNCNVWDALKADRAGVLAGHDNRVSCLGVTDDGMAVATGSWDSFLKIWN
T1 sequence (P63212 2-68 partner limits assumed): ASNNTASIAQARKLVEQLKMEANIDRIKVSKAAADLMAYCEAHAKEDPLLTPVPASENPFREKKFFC
Gs, sequence (P63092 whole entry): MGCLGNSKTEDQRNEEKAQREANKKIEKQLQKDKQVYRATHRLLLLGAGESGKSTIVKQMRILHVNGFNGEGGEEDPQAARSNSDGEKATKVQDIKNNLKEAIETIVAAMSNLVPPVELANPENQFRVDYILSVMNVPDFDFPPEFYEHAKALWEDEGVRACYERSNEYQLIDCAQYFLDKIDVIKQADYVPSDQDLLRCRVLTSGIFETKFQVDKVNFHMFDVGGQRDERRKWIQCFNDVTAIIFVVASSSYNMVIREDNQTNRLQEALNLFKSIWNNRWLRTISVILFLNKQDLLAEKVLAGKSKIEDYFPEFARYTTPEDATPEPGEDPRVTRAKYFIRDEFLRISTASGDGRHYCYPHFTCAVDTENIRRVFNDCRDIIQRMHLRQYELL

## CC[C@H](C)[C@H](NC(=O)[C@H](CCCNC(=N)N)NC(=O)[C@H](Cc1ccc(O)cc1)NC(=O)[C@H](CC(C)C)NC(=O)[C@H](CC(C)C)NC(=O)[C@H](CC(C)C)NC(=O)[C@@H](NC(=O)[C@H](CC(C)C)NC(=O)[C@@H](NC(=O)[C@H](CC(C)C)NC(=O)[C@H](CC(C)C)NC(=O)[C@@H](NC(=O)[C@H](C)NC(=O)[C@@H](NC(=O)[C@H](CC(C)C)NC(C)=O)[C@@H](C)O)C(C)C)[C@@H](C)O)[C@@H](C)O)C(=O)N[C@@H](CC(N)=O)C(=O)N[C@@H](CC(C)C)C(=O)N[C@@H](CCCCN)C(=O)N[C@@H](C)C(=O)N[C@@H](CC(C)C)C(=O)N[C@@H](C)C(=O)N[C@@H](C)C(=O)N[C@@H](CC(C)C)C(=O)N[C@@H](C)C(=O)N[C@@H](CCCCN)C(=O)N[C@@H](C)C(=O)N[C@@H](CC(C)C)C(=O)N[C@@H](CC(C)C)C(N)=O [ER26]
[1]
  Goo ef. (apparent efficacy, maximum turnover number of GTPase activity): F (Fair (F): 2-5 fold)
[2]; Table IV
  G1 ef. (apparent efficacy, maximum turnover number of GTPase activity): G (Good (G): 5-10 fold)
[2]; [10]
  EC50: 3 to 10 µM
[3]; Table IV
  Gs ef. (apparent efficacy, maximum turnover number of GTPase activity): F (Fair (F): 2-5 fold)

## CC[C@H](C)[C@H](N)C(=O)N[C@@H](CC(N)=O)C(=O)N[C@@H](CC(C)C)C(=O)N[C@@H](CCCCN)C(=O)N[C@@H](C)C(=O)N[C@@H](CC(C)C)C(=O)N[C@@H](C)C(=O)N[C@@H](C)C(=O)N[C@@H](CC(C)C)C(=O)N[C@@H](C)C(=O)N[C@@H](CCCCN)C(=O)N[C@@H](CCCCN)C(=O)N[C@H](C(=O)N[C@@H](CC(C)C)C(N)=O)[C@@H](C)CC [MP]
[4]; GDP exchange assay, typical
  stimulation of Gi: about 15 fold
[1]
  EC50: 3 to 10 µM
  Goo ef. (apparent efficacy, maximum turnover number of GTPase activity): E (Excellent (E): 30-10 fold)
[1]; 10 μM peptide, 15 min at 20° C., PE/PC/PS vesicles
  GTPase Go 10 μM: 0.59 min⁻¹
[1]; 100 μM peptide, 15 min at 20° C., PE/PC/PS vesicles
  GTPase Go 100 μM: 0.95 min⁻¹
[2]; 10 μM peptide, 30 min at 30° C., PE/PC/PS vesicles
  GTPase Gi 10 μM: 0.19 min⁻¹
[2]; 100 μM peptide, 30 min at 30° C., PE/PC/PS vesicles
  GTPase Gi 100 μM: 0.47 min⁻¹
[2]; GTPase assay, typical
  stimulation of Gi: about 15 fold
[2]; Table IV
  G1 ef. (apparent efficacy, maximum turnover number of GTPase activity): E (Excellent (E): 30-10 fold)
[2]; [10]
  EC50: 10 to 30 µM
[3]; Table IV
  Gs ef. (apparent efficacy, maximum turnover number of GTPase activity): F (Fair (F): 2-5 fold)
  EC50: 3 to 10 µM
[5]; absence of 1 mM phospholipid
  % α Helix - PC: 19%
[5]; presence of 1 mM phospholipid
  % α Helix + PC: 61%
[6]
  effect on affinity of the receptor for the antagonist [3H]QNB: did not alter
[6]; 30 μM peptide, […]
  effect on the receptor's affinity for acetylcholine: decreased the receptor's affinity for acetylcholine
[7]
  effect on rate of hydrolysis of bound GTP: did not alter

## CCCCCCCCCCCCC[N+](C)(C)Cc1ccccc1 [BAC (C-12), benzalkonium chloride]
[4]; Gi, FIG. 4B
  BAC concentration range in which the EC50 for Mas7 increased sharply: 1 to 3 µg/mL
[4]; intermediate concentrations of Mas7
  inhibition of Mas7-stimulated GDP exchange on Gi: ≤ 60%
[4]; no Mas7
  effect on basal GDP exchange rate of Gi: no detectable inhibition
[1]; 10 μg/ml amine, 15 min at 20° C., PE/PC/PS vesicles
  Turnover number Go 10 μg/ml: 0.33 min⁻¹
[1]; 100 μg/ml amine, 15 min at 20° C.
  Turnover number Go 100 μg/ml: 0.8 min⁻¹
[1]; at about 30 μg/ml (~0.1 mM) BAC, FIG. 5
  maximal stimulation of Go: 20 fold
[2]; 3 μg/ml BAC, 10 μM Mas7 (FIG. 3)
  effect on stimulation of Gi GTPase activity by Mas7 and MP: antagonized
[2]; 10 μg/ml amine, 30 min at 30° C.
  Turnover number Gi 10 μg/ml: 0.08 min⁻¹
[2]; 100 μg/ml amine, 30 min at 30° C.
  Turnover number Gi 100 μg/ml: 0.04 min⁻¹
[8]; as restated
  critical micelle concentration: 20 µg/mL
[8]; buffer used for GTPase assays, 1,6-diphenyl-1,3,5-hexatriene
  critical micelle concentration: approximately 20 μM

## CPFRYQSLNTRARAKVI-NH2 [ER39]
[1]; [11]
  Go ef. (apparent efficacy, maximum turnover number of GTPase activity): F (Fair (F): 2-5 fold)
[2]; [11]
  Gi ef. (apparent efficacy, maximum turnover number of GTPase activity): P (Poor (P): less than 2 fold)
[2]; Table VI, receptor-based peptides, read-out: Gi af. (apparent affinity, estimated by EC50 of GTPase activity)
  EC50: > 100 µM
[3]; [11]
  Gs ef. (apparent efficacy, maximum turnover number of GTPase activity): F (Fair (F): 2-5 fold)

## INLKALAALKKALL-NH2 [ER25]
[1]
  EC50: 10 to 30 µM
[3]; Table IV
  EC50: 10 to 30 µM
[9]
  toxicity (in words): least toxic
